The text below walks through data of patent US20190248834A1, “ENDOMORPHIN-2, TETRAPEPTIDE DERIVATIVES THEREOF, AND USES THEREOF” (priority 2016, published 2019).

SMILES strings stand for the structures.

The assay relates to severe migraine. Nature of the assay: Example 12: analgesic effect on severe migraine headache, topical. The format is in vivo, human. To be noted: 1% (w/v) in WEP442, topical. As for the experimental part:
One day, at approximately 8 AM, visual aura and pain in the frontal scalp, forehead and frontal sinuses began and became very severe within 5-10 minutes. Thereafter, the subject topically applied a composition containing 1% (w/v) N-Ac-Tyr-Pro-Phe-Phe-NH2(SEQ ID NO: 23) in WEP442 to the involved area. […] Three (3) days later they remained free of any migraine headache and symptoms.

Regarding `CC(=O)N[C@@H](Cc1ccc(O)cc1)C(=O)N1CCC[C@H]1C(=O)N[C@@H](Cc1ccccc1)C(=O)N[C@@H](Cc1ccccc1)C(N)=O` [N-Ac-Tyr-Pro-Phe-Phe-NH2], the “relief of migraine pain and all other symptoms” value is recorded as “suddenly disappeared completely”; the “time free of migraine headache and symptoms” value is listed as at least 3 days; the “time to pain relief” value fell in the range of 6 to 7 min.
